Measured values from patent publication US8198294B2, “Treatment of dyskinesia” (Motac Neuroscience Limited, priority 2001, dated 2012).

Test system: MPTP-lesioned marmoset
Test: L-DOPA-induced dyskinesia in MPTP-treated marmoset model of Parkinson's disease
Assay type: in vivo, common marmosets (Callithrix jacchus)
Conditions: for Median total dyskinesia scores compared to animals treated with L-DOPA and vehicle / Animals in which dyskinesia was completely abolished: antagonist 10 mg/kg i.p. with L-DOPA 8 mg/kg p.o.; for Median total dyskinesia scores compared to animals treated with L-DOPA and vehicle: cumulative scores; for Animals in which dyskinesia was completely abolished: n=6
Experimental: The effect of the selective mu opioid receptor antagonist Cyprodime on dyskinesia was assessed in a 1-methyl-4-phenyl-1,2,3,6-tetrahydropyridine (MPTP)-treated marmoset model of Parkinson's disease.
Six adult common marmosets (Callithrix jacchus) were obtained from a closed colony bred at Manchester University, BSU. This study was conducted in the U.K. in accordance with the requirements of The Animals (Scientific Procedures) Act, 1986. The animals were kept in controlled housing conditions, with constant temperature (25° C.), relative humidity (50%) and 12 h light/dark cycles (08.00-20.00 light on). The animals had free access to food (Masuri primate diet-E, Scientific Dietary Services, UK), fresh fruit supplements and water. Marmosets were rendered parkinsonian by treatment with 1-methyl-4-phenyl-1,2,3,6-tetrahydropyridine (MPTP) hydrochloride (Sigma, 2 mg/kg s.c. for 5 consecutive days). […] The animals were allowed to recover for a period of 14 weeks until behavioural assessment was commenced.
Dyskinesia was established in these animals by twice daily treatment with L-DOPA (10 mg/kg p.o. as Madopar Dispersible®) for 3 weeks.
Opioid antagonists, or vehicle, were administered with L-DOPA to assess the effects of adjunctive treatment on L-DOPA-induced dyskinesia and the anti-parkinsonian efficacy of L-DOPA. All animals received all treatments. Treatments in any one animal were separated by at least three days. Naltrexone (non-selective antagonist) was administered at a dose of 10 mg/kg (i.p), cyprodime (mu selective antagonist) was administered at a dose of 10 mg/kg (i.p.), naltrindole (delta selective antagonist) was administered at a dose of 10 mg/kg (i.p.), nor-binaltorphimine (nor-BNI, kappa selective antagonist) was administered at a dose of 20 mg/kg (i.p.). Drugs or vehicle were administered with L-DOPA treatment (8 mg/kg p.o.). Behaviour was assessed for 3 hours post drug administration.
A battery of behavioural assessments was performed to assess the intensity, range and speed of movements. In addition, postural abnormalities and dyskinesia were assessed. • 1) Parkinsonian disability—non-parametric measures based on the following scales • i) Motor activity (repertoire) score: 0=no movement at all, 1=movement of head or trunk, 2=movement of limbs but no locomotion, on the floor of the cage, 3=on wall of cage/perch, movement of head or trunk, 4=on wall of cage/movement of limbs but no locomotion, 5=walking around/eating on floor of cage, 6=hopping on floor of cage, 7=climbing onto wall of cage or perch, 8=climbing up and down the walls of the cage or along perch, 9=running, jumping, climbing between cage walls/perch/roof, uses limbs through a wide range of motion and activity. • ii) Bradykinesia score: 0=normal speed of movement, 1=moderate slowing of movement, difficulty initiating and maintaining movement 2=akinetic, unable to move (maximum score in 30 minutes=12). • iii) Posture score: 0=normal, upright, holds head up, 1=impaired, crouched, face down. (maximum score in 30 minutes=6). • 2) Dyskinesia • 0=Absent • 1=Mild, fleeting • 2=Moderate, not interfering with normal activity • 3=Marked, at times interfering with normal activity • 4=Severe, continuous, replacing normal activity
Parameters 1 and 2 were assessed every 30 minutes throughout a six hour period by post-hoc analysis of videotape recordings. Assessment was made by an observer blinded to the treatment administered.
Non-parametric measures of mobility, bradykinesia, posture and dyskinesia were cumulated and compared between treatments with a Friedman's test with post hoc Dunn's test where appropriate.

[1] = L-DOPA 8 mg/kg p.o., MPTP-treated marmosets

For N[C@@H](Cc1ccc(O)c(O)c1)C(=O)O [L-DOPA], which “Parkinsonian symptoms after L-DOPA treatment” value [1] is on record?
Its value is “reversed”.

And the “Time to commencement of dyskinesia after L-DOPA administration” value [1]?
Its value is no more than 5 min.

What does the source list for COc1cccc2c1[C@]13CCN(CC4CC4)[C@H](C2)[C@]1(OC)CCC(=O)C3 [cyprodime]?
Dyskinesia exhibited by each treated animal (10 mg/kg i.p. with L-DOPA 8 mg/kg p.o., individual animals): minimal or no dyskinesia; Median total dyskinesia scores compared to animals treated with L-DOPA and vehicle (n=6, FIG. 1): markedly reduced; Animals in which dyskinesia was completely abolished: 100%

Which “Median total dyskinesia scores compared to animals treated with L-DOPA and vehicle” value (n=6, FIG. 1) does the source give for O=C1CC[C@@]2(O)[C@H]3Cc4ccc(O)c5c4[C@@]2(CCN3CC2CC2)[C@H]1O5 [naltrexone] here?
The value was “reduced”.

What about the “Animals in which dyskinesia was completely abolished” value of the same molecule?
The value was 33%.

What does the source list for Oc1ccc2c3c1O[C@H]1c4[nH]c5ccccc5c4C[C@@]4(O)[C@@H](C2)N(CC2CC2)CC[C@]314 [naltrindole]?
Median total dyskinesia scores compared to animals treated with L-DOPA and vehicle (n=6, FIG. 1): reduced; Animals in which dyskinesia was completely abolished: 50%

Which “Median total dyskinesia scores (effect on L-DOPA-induced dyskinesia)” value (antagonist 20 mg/kg i.p. with L-DOPA 8 mg/kg p.o., n=6, FIG. 1) does the source give for Oc1ccc2c3c1O[C@H]1c4[nH]c5c(c4C[C@@]4(O)[C@@H](C2)N(CC2CC2)CC[C@]314)C[C@@]1(O)[C@H]2Cc3ccc(O)c4c3[C@@]1(CCN2CC1CC1)[C@H]5O4 [nor-BNI, nor-binaltorphimine] here?
The value was “no effect”.
